In patent US20230085307A1, “PYRIDAZINONE COMPOUND AND HERBICIDE” (NISSAN CHEMICAL CORPORATION, priority 2019, published 2023):

Legend:
Japanese bulrush = assay: Test Example 2: herbicidal activity, application during weed generation under submerged conditions (Table 17, symbol B); format: in vivo, Japanese bulrush (Schoenoplectus juncoides); details: AAH 320 g/ha; application during weed generation, submerged conditions
Summary of the method: (§1)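 Wagner pot, alluvial soil, 4 cm flood; mixed sowing of all species; greenhouse 25° C.–30° C. Emulsifiable formulation, water-diluted to predetermined dose, applied to paddy water at 1–2 leaf stage. Effect rated at 3 wk using the earlier test's scoring criteria.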

chickweed = assay: Test Example 4: herbicidal effect by soil treatment (Table 19, symbol P); format: in vivo, common chickweed (Stellaria media); details: amount of applied herbicide 320 g/ha
Summary of the method: (§2)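 Pre-emergence style soil spray: seeds under ~1.5 cm sterilized diluvial soil received a uniform coat of emulsion diluted to the predetermined herbicide amount. Greenhouse 25–30° C; readout at week three on previously defined criteria.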

velvetleaf [1] = assay: Test Example 4: herbicidal effect by soil treatment (Table 19, symbol M); format: in vivo, velvetleaf (Abutilon theophrasti); details: amount of applied herbicide 320 g/ha
Summary of the method: as §2

late watergrass [2] = assay: Test Example 1: herbicidal activity, application before weed generation under submerged conditions (Table 16, symbol A); format: in vivo, late watergrass (Echinochloa oryzicola); details: amount of applied herbicide 320 g/ha
Summary of the method: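 Emulsion formulation, water-diluted to set dose, was put onto the flooded surface (4 cm depth, alluvial soil) the same day weeds were sown and 2.5-leaf rice transplanted. After 3 weeks at 25-30 °C under glass, each species was rated 0 (≤5% kill) to 5 (≥90% kill).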

oval-leafed pondweed = assay: Test Example 2: herbicidal activity, application during weed generation under submerged conditions (Table 17, symbol C); format: in vivo, oval-leafed pondweed (Monochoria vaginalis); details: AAH 320 g/ha; application during weed generation, submerged conditions
Summary of the method: as §1

windgrass = assay: Test Example 4: herbicidal effect by soil treatment (Table 19, symbol L); format: in vivo, windgrass (Apera spica-venti); details: amount of applied herbicide 320 g/ha
Summary of the method: as §2

late watergrass [3] = assay: Test Example 2: herbicidal activity, application during weed generation under submerged conditions (Table 17, symbol A); format: in vivo, late watergrass (Echinochloa oryzicola); details: AAH 320 g/ha; application during weed generation, submerged conditions
Summary of the method: as §1

rice flat sedge = assay: Test Example 3: herbicidal effect by foliage application, Wagner pot (Table 18, symbol E); format: in vivo, rice flat sedge (Cyperus iria); details: for herbicidal effect on rice flat sedge (E): 320 g/ha; for Herbicidal effect on E (rice flat sedge), foliage application: amount of applied herbicide 320 g/ha
Summary of the method: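 Plants were sown in alluvial soil held under 0.1–0.5 cm standing water and grown 14 days in a greenhouse at 25–30 °C. An emulsifiable formulation, water-diluted to the set dose, was then sprayed onto the foliage, and effects were scored three weeks later using previously defined criteria.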

velvetleaf [4] = assay: Test Example 5: herbicidal effect by foliage application, plastic box (Table 20, symbol M); format: in vivo, velvetleaf (Abutilon theophrasti); details: foliage application, 320 g/ha, three weeks after application
Summary of the method: (§3)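 Plants were sown into sterilized diluvial soil under about 1.5 cm cover and kept in a greenhouse at 25° C. to 30° C. Fourteen days on, foliage received an even spray of the diluted emulsion. Herbicidal or crop effect was judged three weeks afterwards.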

barnyard grass = assay: Test Example 4: herbicidal effect by soil treatment (Table 19, symbol H); format: in vivo, barnyard grass (Echinochloa crus-galli); details: amount of applied herbicide 320 g/ha
Summary of the method: as §2

green foxtail [5] = assay: Test Example 4: herbicidal effect by soil treatment (Table 19, symbol G); format: in vivo, green foxtail (Setaria viridis); details: amount of applied herbicide 320 g/ha
Summary of the method: as §2

Italian ryegrass = assay: Test Example 5: herbicidal effect by foliage application, plastic box (Table 20, symbol K); format: in vivo, Italian ryegrass (Lolium multiflorum); details: foliage application, 320 g/ha, three weeks after application
Summary of the method: as §3

persian speedwell = assay: Test Example 4: herbicidal effect by soil treatment (Table 19, symbol R); format: in vivo, Persian speedwell (Veronica persica); details: amount of applied herbicide 320 g/ha
Summary of the method: as §2

lambsquarters = assay: Test Example 4: herbicidal effect by soil treatment (Table 19, symbol O); format: in vivo, lambsquarters (Chenopodium album); details: amount of applied herbicide 320 g/ha
Summary of the method: as §2

green foxtail [6] = assay: Test Example 5: herbicidal effect by foliage application, plastic box (Table 20, symbol G); format: in vivo, green foxtail (Setaria viridis); details: foliage application, 320 g/ha, three weeks after application
Summary of the method: as §3

SMILES | herbicidal effect rating, B: Japanese bulrush (Japanese bulrush) | P: chickweed, herbicidal effect grade (chickweed) | M: velvetleaf, herbicidal effect grade (velvetleaf [1]) | Herbicidal effect, A: late watergrass (late watergrass [2]) | herbicidal effect rating, C: oval-leafed pondweed (oval-leafed pondweed) | L: windgrass, herbicidal effect grade (windgrass) | herbicidal effect rating, A: late watergrass (late watergrass [3]) | herbicidal effect on rice flat sedge (E) (rice flat sedge) | herbicidal effect on velvetleaf (M) (velvetleaf [4]) | H: barnyard grass, herbicidal effect grade (barnyard grass) | G: green foxtail, herbicidal effect grade (green foxtail [5]) | herbicidal effect on Italian ryegrass (K) (Italian ryegrass) | R: persian speedwell, herbicidal effect grade (persian speedwell) | O: lambsquarters, herbicidal effect grade (lambsquarters) | herbicidal effect on green foxtail (G) (green foxtail [6]) | Herbicidal effect on E (rice flat sedge), foliage application (rice flat sedge)
COc1ccccc1-c1sc2cc(C)c(C)cc2c1-c1c(O)c(C)nn(C)c1=O [5-090] | 2 (Herbicidal rate of 20% or more and less than 40%) | 1 (Herbicidal rate of 5% or more and less than 20%) | 0 (Herbicidal rate of 5% or less (almost no effect)) | 3 (Herbicidal rate of 40% or more and less than 70%) | 0 (Herbicidal rate of 5% or less (almost no effect)) | 3 (Herbicidal rate of 40% or more and less than 70%) | 0 (Herbicidal rate of 5% or less (almost no effect)) | 5 (Herbicidal rate of 90% or more (almost completely withered)) | 5 (Herbicidal rate of 90% or more (almost completely withered)) | 0 (Herbicidal rate of 5% or less (almost no effect)) | 0 (Herbicidal rate of 5% or less (almost no effect)) | 5 (Herbicidal rate of 90% or more (almost completely withered)) | 1 (Herbicidal rate of 5% or more and less than 20%) | 0 (Herbicidal rate of 5% or less (almost no effect)) | 5 (Herbicidal rate of 90% or more (almost completely withered)) | –
CCCC(=O)Oc1c(C)nn(C)c(=O)c1-c1c(-c2ccccc2OCC)sc2cc(C)c(C)cc12 [5-095] | 4 (Herbicidal rate of 70% or more and less than 90%) | 3 (Herbicidal rate of 40% or more and less than 70%) | 0 (Herbicidal rate of 5% or less (almost no effect)) | 5 (Herbicidal rate of 90% or more (almost completely withered)) | 4 (Herbicidal rate of 70% or more and less than 90%) | 0 (Herbicidal rate of 5% or less (almost no effect)) | 4 (Herbicidal rate of 70% or more and less than 90%) | 4 (Herbicidal rate of 70% or more and less than 90%) | 4 (Herbicidal rate of 70% or more and less than 90%) | 0 (Herbicidal rate of 5% or less (almost no effect)) | 0 (Herbicidal rate of 5% or less (almost no effect)) | 4 (Herbicidal rate of 70% or more and less than 90%) | 3 (Herbicidal rate of 40% or more and less than 70%) | 0 (Herbicidal rate of 5% or less (almost no effect)) | 5 (Herbicidal rate of 90% or more (almost completely withered)) | –
CCOc1cc(F)ccc1-c1sc2cc(C)c(C)cc2c1-c1c(O)c(C)nn(C)c1=O [5-103] | 3 (Herbicidal rate of 40% or more and less than 70%) | 3 (Herbicidal rate of 40% or more and less than 70%) | 1 (Herbicidal rate of 5% or more and less than 20%) | 5 (Herbicidal rate of 90% or more (almost completely withered)) | 3 (Herbicidal rate of 40% or more and less than 70%) | 3 (Herbicidal rate of 40% or more and less than 70%) | 2 (Herbicidal rate of 20% or more and less than 40%) | 5 (Herbicidal rate of 90% or more (almost completely withered)) | 5 (Herbicidal rate of 90% or more (almost completely withered)) | 1 (Herbicidal rate of 5% or more and less than 20%) | 3 (Herbicidal rate of 40% or more and less than 70%) | 4 (Herbicidal rate of 70% or more and less than 90%) | 4 (Herbicidal rate of 70% or more and less than 90%) | 2 (Herbicidal rate of 20% or more and less than 40%) | 5 (Herbicidal rate of 90% or more (almost completely withered)) | –
CCOc1ccc2c(-c3c(O)c(C)nn(C)c3=O)c(-c3ccccc3OC)sc2c1Cl [7-003] | 3 (Herbicidal rate of 40% or more and less than 70%) | 4 (Herbicidal rate of 70% or more and less than 90%) | 3 (Herbicidal rate of 40% or more and less than 70%) | 2 (Herbicidal rate of 20% or more and less than 40%) | 0 (Herbicidal rate of 5% or less (almost no effect)) | 0 (Herbicidal rate of 5% or less (almost no effect)) | 0 (Herbicidal rate of 5% or less (almost no effect)) | – | 5 (Herbicidal rate of 90% or more (almost completely withered)) | 0 (Herbicidal rate of 5% or less (almost no effect)) | 0 (Herbicidal rate of 5% or less (almost no effect)) | 4 (Herbicidal rate of 70% or more and less than 90%) | 5 (Herbicidal rate of 90% or more (almost completely withered)) | 4 (Herbicidal rate of 70% or more and less than 90%) | 4 (Herbicidal rate of 70% or more and less than 90%) | 5 (Herbicidal rate of 90% or more (almost completely withered))
CCOc1ccccc1-c1sc2c(Cl)c(OCC)ccc2c1-c1c(O)c(C)nn(C)c1=O [7-004] | 3 (Herbicidal rate of 40% or more and less than 70%) | 4 (Herbicidal rate of 70% or more and less than 90%) | 3 (Herbicidal rate of 40% or more and less than 70%) | 3 (Herbicidal rate of 40% or more and less than 70%) | 2 (Herbicidal rate of 20% or more and less than 40%) | 0 (Herbicidal rate of 5% or less (almost no effect)) | 3 (Herbicidal rate of 40% or more and less than 70%) | – | 4 (Herbicidal rate of 70% or more and less than 90%) | 3 (Herbicidal rate of 40% or more and less than 70%) | 5 (Herbicidal rate of 90% or more (almost completely withered)) | 4 (Herbicidal rate of 70% or more and less than 90%) | 5 (Herbicidal rate of 90% or more (almost completely withered)) | 4 (Herbicidal rate of 70% or more and less than 90%) | 5 (Herbicidal rate of 90% or more (almost completely withered)) | 5 (Herbicidal rate of 90% or more (almost completely withered))
